# Target: cGAS (Homo sapiens, UniProt Q8N884)
# Test: ISD70-driven IP-10 (and IFN-β) production in THP-1 cells, ELISA
# Format: cell-based
# Set-up: endogenous in cells; host or cells: THP-1 (undifferentiated)
# Conditions: ASO 100 nM; relative to ISD70 only, given as fraction
# cGAS, sequence (Q8N884 whole entry): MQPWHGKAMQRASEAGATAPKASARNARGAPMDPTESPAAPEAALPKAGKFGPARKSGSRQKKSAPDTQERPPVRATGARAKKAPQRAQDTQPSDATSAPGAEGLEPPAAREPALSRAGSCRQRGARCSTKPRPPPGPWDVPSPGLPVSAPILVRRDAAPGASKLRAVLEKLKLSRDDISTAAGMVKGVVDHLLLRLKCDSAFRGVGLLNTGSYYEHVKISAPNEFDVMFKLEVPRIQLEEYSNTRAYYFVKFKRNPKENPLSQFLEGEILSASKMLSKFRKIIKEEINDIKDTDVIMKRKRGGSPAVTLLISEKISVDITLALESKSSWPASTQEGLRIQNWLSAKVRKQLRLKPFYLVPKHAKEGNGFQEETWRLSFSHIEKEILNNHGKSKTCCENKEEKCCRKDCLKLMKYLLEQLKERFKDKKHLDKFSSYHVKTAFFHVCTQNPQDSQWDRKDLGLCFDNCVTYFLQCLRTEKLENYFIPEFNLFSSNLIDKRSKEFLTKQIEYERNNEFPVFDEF
row,Sequence,cGAS 100 nM (averaged IP-10 level relative to ISD70 condition)
1,"AAAGGACTGAGGAAAG (antisense; LNA-modified, pattern not given here) [CAMSAP1-6273 LNA KL]",0.675
2,"AACACTTCGTGGGGTC (antisense; LNA-modified, pattern not given here) [HPRT LNA-666 V1]",0.598
3,"AACCCCTTTCACCATC (antisense; LNA-modified, pattern not given here) [MB21D1-689 LNA KL]",0.621
4,"AATCCAACAAAGTCTG (antisense; LNA-modified, pattern not given here) [HPRT LNA-692 KL]",0.649
5,"ACCACGTCTGCTCTAA (antisense; LNA-modified, pattern not given here) [CAMSAP1-1635 LNA KL]",0.638
6,"ACGTTCAGTCCTGTCC (antisense; LNA-modified, pattern not given here) [HPRT LNA-294 V1]",0.880
7,"ACTTCGTGGGGTCCTT (antisense; LNA-modified, pattern not given here) [HPRT LNA-663 V1]",0.937
8,"AGATTTCAGAGCAGCT (antisense; LNA-modified, pattern not given here) [EGFR-4885 LNA KL]",0.625
9,"AGCTTCGAGGCCCCAG (antisense; LNA-modified, pattern not given here) [MB21D1-616 LNA V1]",0.648
10,"AGGACTCCAGATGTTT (antisense; LNA-modified, pattern not given here) [HPRT LNA pos cont]",0.632
11,"AGGCCCTTCGCACTTC (antisense; LNA-modified, pattern not given here) [EGFR-1225 LNA V1]",0.629
12,"AGGTCTTGGCTTCGTG (antisense; LNA-modified, pattern not given here) [MB21D1-524 LNA V1]",0.947
13,"AGTGTTGAGATACTCG (antisense; LNA-modified, pattern not given here) [EGFR-3652 LNA KL]",0.692
14,"ATCTGGCAGCCCATCA (antisense; LNA-modified, pattern not given here) [CTNN2B-2516 LNA V1]",0.502
15,"ATGGCCTCCCATCTCC (antisense; LNA-modified, pattern not given here) [HPRT LNA-330 V1]",0.475
16,"ATGTGATGGCCTCCCA (antisense; LNA-modified, pattern not given here) [HPRT LNA-335 V1]",0.606
17,"CACTTCGTGGGGTCCT (antisense; LNA-modified, pattern not given here) [HPRT LNA-664 V1]",0.562
18,"CATCCACCACGTCGTC (antisense; LNA-modified, pattern not given here) [EGFR-3266 LNA V1]",0.902
19,"CCAACACTTCGTGGGG (antisense; LNA-modified, pattern not given here) [HPRT LNA-668 V1]",0.842
20,"CCACATCCTGTGGCTC (antisense; LNA-modified, pattern not given here) [CAMSAP1-2906 LNA V1]",0.999
21,"CCACTTGGCAGACCAT (antisense; LNA-modified, pattern not given here) [CTNN2B-1575 LNA V1]",0.532
22,"CCAGCAGGTCAGCAAA (antisense; LNA-modified, pattern not given here) [HPRT LNA-388 KL]",0.552
23,"CCTTGCACGTGGCTTC (antisense; LNA-modified, pattern not given here) [EGFR-1013 LNA V1]",0.559
24,"CGCTTTTCTGTCTGGT (antisense; LNA-modified, pattern not given here) [CTNN2B-311 LNA KL]",0.475
25,"CGGCCTCGGAAGCTCT (antisense; LNA-modified, pattern not given here) [MB21D1-168 LNA V1]",0.617
26,"CGTATTATAGCCGATT (antisense; LNA-modified, pattern not given here) [NC1 LNA PS 3-10-3]",0.443
27,"CTGCAGCTTCCTTGTC (antisense; LNA-modified, pattern not given here) [CTNN2B-2136 LNA V1]",0.613

row,Sequence,cGAS 100 nM (averaged IP-10 level relative to ISD70 condition)
1,"CTTCGTGGGGTCCTTT (antisense; LNA-modified, pattern not given here) [HPRT LNA-662 V1]",0.556
2,"CTTGAAGCATCGTATC (antisense; LNA-modified, pattern not given here) [CTNN2B-3648 LNA KL]",0.373
3,"CTTGGCTTCGTGGAGC (antisense; LNA-modified, pattern not given here) [MB21D1-520 LNA V1]",0.666
4,"GAAAGGTTATGCAAGG (antisense; LNA-modified, pattern not given here) [CTNN2B-916 LNA KL]",0.473
5,"GACTATACGCGCAATA (antisense; LNA-modified, pattern not given here) [NC5 LNA PS 3-10-3]",0.991
6,"GAGGTCTTGGCTTCGT (antisense; LNA-modified, pattern not given here) [MB21D1-525 LNA V1]",0.508
7,"GATGGCCTCCCATCTC (antisense; LNA-modified, pattern not given here) [HPRT LNA-331 V1]",0.632
8,"GCACACTTCGTACCCA (antisense; LNA-modified, pattern not given here) [CAMSAP1-4915 LNA V1]",0.383
9,"GCACTTCAGTCTGAGC (antisense; LNA-modified, pattern not given here) [MB21D1-719 LNA KL]",0.797
10,"GGAGGTCTTGGCTTCG (antisense; LNA-modified, pattern not given here) [MB21D1-526 LNA V1]",1.061
11,"GGCTCGGCTTGCCTAC (antisense; LNA-modified, pattern not given here) [CAMSAP1-5594 LNA V1]",0.761
12,"GGTCATTACAATAGCT (antisense; LNA-modified, pattern not given here) [HPRT LNA-475 KL]",0.751
13,"GGTCTTGGCTTCGTGG (antisense; LNA-modified, pattern not given here) [MB21D1-523 LNA V1]",0.648
14,"GTCAAGGGCATATCCT (antisense; LNA-modified, pattern not given here) [HPRT LNA-732 KL]",0.636
15,"GTCCTTGCACGTGGCT (antisense; LNA-modified, pattern not given here) [EGFR-1015 LNA V1]",0.645
16,"GTCTCTGGAGCTTCCT (antisense; LNA-modified, pattern not given here) [CAMSAP1-2456 LNA V1]",0.627
17,"GTCTTCATCGGCCCTG (antisense; LNA-modified, pattern not given here) [CAMSAP1-2113 LNA V1]",0.809
18,"GTGATCTTGACATGCT (antisense; LNA-modified, pattern not given here) [EGFR-2790 LNA KL]",0.661
19,"GTGATGGCCTCCCATC (antisense; LNA-modified, pattern not given here) [HPRT LNA-333 V1]",0.724
20,"TACTTTCCGAGGTGTC (antisense; LNA-modified, pattern not given here) [CAMSAP1-1739 LNA KL]",0.638
21,"TCCACAATCAAGACAT (antisense; LNA-modified, pattern not given here) [HPRT LNA-551 KL]",0.601
22,"TCCATACCCAAGGCAT (antisense; LNA-modified, pattern not given here) [CTNN2B-2446 LNA V1]",0.589
23,"TCCGCCCAAAGGGAAC (antisense; LNA-modified, pattern not given here) [HPRT LNA-1027 KL]",0.860
24,"TCCTTGCACGTGGCTT (antisense; LNA-modified, pattern not given here) [EGFR-1014 LNA V1]",0.591
25,"TCGTGGGGTCCTTTTC (antisense; LNA-modified, pattern not given here) [HPRT LNA-660 V1]",0.729
26,"TCTTCATCGGCCCTGC (antisense; LNA-modified, pattern not given here) [CAMSAP1-2112 LNA V1]",0.548

# Same assay, conditions: MOE-modified ASO at 100 nM; averaged IP-10 levels relative to ISD70 condition
row,Sequence,cGAS 100 nM
1,"ACACTTCGTGGGGTCCTTTT (antisense; 2'-MOE modified, pattern not given here) [HPRT-663 MOE]",0.623

# Same assay, conditions: THP-1; 300 nM LNA or 200 nM MOE ASO ~30 min; ISD70 overnight (FIG. 21, 23)
row,Sequence,"inhibition of cGAS in THP-1, LNA and MOE ASO validation (in words)"
1,"CGCTTTTCTGTCTGGT (antisense; LNA-modified, pattern not given here) [CTNN2B-311 LNA KL]",potently inhibited signalling
2,"CTTGAAGCATCGTATC (antisense; LNA-modified, pattern not given here) [CTNN2B-3648 LNA KL]",failed to significantly inhibit cGAS

# From US20240384268A1, “Oligonucleotides” (Hudson Institute of Medical Research, priority 2021, published 2024)
